The text below walks through data of patent US20020169128A1, “Erythropoietin ameliorates chemotherapy-induced toxicity in vivo” (priority 2001, published 2002).

In one data set the test system is C57B16 female mice. Briefly: Pulmonary function (Penh) by whole body plethysmography after graded methacholine challenge in mice treated with EPO and/or bleomycin. It counts as in vivo. The note with it: treated twice a week for two weeks, i.p., FIG. 1. The method, then: C57B16 female mice between 7 and 12 weeks old weighing approximately 20 grams were treated with varying doses of EPO alone and in combination with bleomycin. Animals were treated twice a week with placebo, EPO alone (5-40 μg/mouse, i.p.), bleomycin alone (0.25-0.75 μg/mouse, i.p.), or EPO and bleomycin in combination. […] At these time points, pulmonary function was measured using a full body plethysmograph (Buxco, Niskayuna, N.Y.). This is a noninvasive method utilizing a clear plastic animal chamber fitted with two pneumotachs and a transducer which interface with a computer. Pulmonary resistance and dynamic compliance is evaluated by an analyzer which measures flow and pressure readings at equivalent lung volumes during inspiration and expiration (“Iso-Volumetric Method”). Artifacts from animal movement or atypical breaths (e.g. from “sniffing”) are ignored by computer analysis using parameters that can be adjusted as appropriate for the tidal volume and inspiratory time of the individual animal. The method of whole body plethysmography has been studied and found to be a valid index of pulmonary function in the mouse (Hamelmann et al., Am. J. Respir. Crit. Care Med. 156)3 Pt1) 776-75 (1997). […] A similar pattern of the Penh values was observed when pulmonary functions were performed at four weeks of treatment (see FIG. 2).

The conditions of data set [1]: doses of up to 1,500 Units/kg for three to four weeks; cited from earlier work.

As for bleomycin [reference compound], the “worsening in Penh values compared with control animals” value in the data set with C57B16 female mice (graded (0 to 48 mg/ml) methacholine challenge) worked out at 2.6 fold.

Take erythropoietin [EPO]: the “pulmonary function (Penh), EPO given in the absence of bleomycin” value in the data set with C57B16 female mice (graded methacholine challenge) is listed as “slight enhancement of pulmonary function”. The “toxic effects due to EPO itself” value in data set [1] was “without toxic effects”.
